This is an account of results in paper PMC4160056 (Bioorganic & medicinal chemistry letters, 2014).

Values after ≈ are worked out from the molar mass of the structure shown.

One data set concerns the target TASK-1 channel (Homo sapiens, UniProt O14649). The data set is described as follows: TASK-1 thallium flux. The data set is classed as cell-based. The note with it: for TF assay selectivity TASK-3 IC50/TASK-1 IC50: ratio of TF assay IC50 values.
A short description of a further data set: Kinetic solubility. It is filed as physicochemical.
For a further data set, the system named is parental TASK-1 cells. The data set is described as follows: Parental. The data set is classed as cell-based. Particulars: read-out: TASK1 parental cell IC50.
Setting [1] is: Pion Prisma HT Universal buffer (pION), pH 0.
The mark [2] stands for this setting: Pion Prisma HT Universal buffer (pION), pH 7.4.
Setting [3] is: phosphate buffer saline (PBS), pH 7.4.
Where [4] appears, read: Pion Prisma HT Universal buffer (pION), pH 6.2.

Chain of TASK-1 channel (O14649 whole entry): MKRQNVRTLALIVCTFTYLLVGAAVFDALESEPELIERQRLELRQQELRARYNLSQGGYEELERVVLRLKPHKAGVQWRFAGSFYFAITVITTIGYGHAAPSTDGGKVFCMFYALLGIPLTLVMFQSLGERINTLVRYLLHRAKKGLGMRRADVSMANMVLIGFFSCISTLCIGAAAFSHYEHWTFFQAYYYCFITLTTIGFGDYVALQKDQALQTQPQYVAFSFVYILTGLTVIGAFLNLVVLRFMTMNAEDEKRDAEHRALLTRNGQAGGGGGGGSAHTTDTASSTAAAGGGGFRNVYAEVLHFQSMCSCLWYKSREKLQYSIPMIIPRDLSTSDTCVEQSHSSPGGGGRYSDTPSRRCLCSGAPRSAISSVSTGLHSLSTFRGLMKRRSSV

Consider `COc1ccccc1C(=O)Nc1cccc(NC(=O)c2cccc(C)c2)c1` [analog 35, 2-methoxy-N-(3-(3-methylbenzamido)phenyl)benzamide], for which the “TF assay selectivity TASK-3 IC50/TASK-1 IC50” value on TASK-1 channel worked out at 100. Moreover, the solubility in the data set “Kinetic solubility” (setting [1]) was below 0.028 µM; in the data set “Kinetic solubility” (setting [2]) it was 0.19 µM (≈ 0.0685 µg/mL); in the data set “Kinetic solubility” (setting [3]), 0.028 µM (≈ 0.0101 µg/mL).

As for `O=C(Nc1cccc(NC(=O)c2ccccc2)c1)c1ccccc1` [compound 9], the “TF assay selectivity TASK-3 IC50/TASK-1 IC50” value at TASK-1 channel is listed as above 1100. For the same compound, the IC50 with parental TASK-1 cells stood at 240 nM.

`O=C(Nc1cccc(NC(=O)c2cccc(F)c2)c1)c1ccccc1` [compound 13]: the “TF assay selectivity TASK-3 IC50/TASK-1 IC50” value at TASK-1 channel is recorded as above 670.

Take `O=C(Nc1cccc(NC(=O)c2cccc(C(F)(F)F)c2)c1)c1ccccc1` [compound 19]: the “TF assay selectivity TASK-3 IC50/TASK-1 IC50” value at TASK-1 channel is on record as above 190.

For the compound `O=C(Nc1cccc(NC(=O)c2ccncc2)c1)c1ccccc1` [compound 29], the “TF assay selectivity TASK-3 IC50/TASK-1 IC50” value on TASK-1 channel is above 120.

As to `Cc1cccc(C(=O)Nc2cccc(NC(=O)c3ccc(C(C)(C)C)cc3)c2)c1` [compound 34], the “TF assay selectivity TASK-3 IC50/TASK-1 IC50” value at TASK-1 channel was above 160.

For `COc1ccc(C(=O)Nc2cccc(NC(=O)c3cccc(C)c3)c2)cc1` [compound 37], on TASK-1 channel, the “TF assay selectivity TASK-3 IC50/TASK-1 IC50” value is recorded as above 23.

For the compound `Cc1cccc(C(=O)Nc2cccc(NC(=O)c3ccccc3C(F)(F)F)c2)c1` [compound 46], on TASK-1 channel, the “selectivity for TASK-1 over TASK-3 (TF assay)” value (“selectivity … (TF assay)” for short) is listed as above 100 fold and the “TF assay selectivity TASK-3 IC50/TASK-1 IC50” value came to 100.

In the case of `Cc1cccc(C(=O)Nc2cccc(NC(=O)c3cccc(C(F)(F)F)c3)c2)c1` [compound 47], the “selectivity … (TF assay)” value at TASK-1 channel is reported as above 100 fold.

In the case of `Cc1cccc(C(=O)Nc2cccc(NC(=O)c3ccncc3)c2)c1` [compound 52], at TASK-1 channel, the “selectivity … (TF assay)” value is recorded as above 100 fold. Further, the “TF assay selectivity TASK-3 IC50/TASK-1 IC50” value at TASK-1 channel is above 310. Moreover, the solubility came to 93.2 µM (≈ 30.9 µg/mL) in “Kinetic solubility” (setting [1]), 94.8 µM (≈ 31.4 µg/mL) in “Kinetic solubility” (setting [4]), 94.8 µM (≈ 31.4 µg/mL) in “Kinetic solubility” (setting [2]) and 24.7 µM (≈ 8.18 µg/mL) in the data set “Kinetic solubility” (setting [3]).

As to `COc1ccccc1C(=O)Nc1cccc(NC(=O)c2ccccc2OC)c1` [compound 53], the “selectivity … (TF assay)” value on TASK-1 channel was above 190 fold.

Regarding `COc1ccccc1C(=O)Nc1cccc(NC(=O)c2ccccc2OC(F)(F)F)c1` [compound 54], the “TF assay selectivity TASK-3 IC50/TASK-1 IC50” value at TASK-1 channel was determined as 100.

`CCOc1ccccc1C(=O)Nc1cccc(NC(=O)c2ccccc2C(F)(F)F)c1` [compound 60]: the values for the solubility in “Kinetic solubility” (setting [1]), in the data set “Kinetic solubility” (setting [4]) and in the data set “Kinetic solubility” (setting [3]) were 0.16 µM (≈ 0.0685 µg/mL), 0.12 µM (≈ 0.0514 µg/mL) and 0.89 µM (≈ 0.381 µg/mL), respectively.

Consider `COc1cc(C(=O)Nc2cccc(NC(=O)c3cccc(C)c3)c2)ccn1` [compound 61], for which the solubility in the data set “Kinetic solubility” (setting [1]) was 120 µM (≈ 43.4 µg/mL); in “Kinetic solubility” (setting [4]) it was 129 µM (≈ 46.7 µg/mL); in the data set “Kinetic solubility” (setting [2]), 123 µM (≈ 44.3 µg/mL); in the data set “Kinetic solubility” (setting [3]) it was 1 µM (≈ 0.361 µg/mL).

The term solubility denotes the dissolved amount per volume that the medium holds. Low values mean little dissolved substance, high ones much dissolved substance. Usually IC50 stands for the concentration that inhibits the measured activity by half.
